Assay results taken from paper PMC9529944, “Molecular asymmetry of a photosynthetic supercomplex from green sulfur bacteria” (Nature Communications, 2022).
Blank lines part the entries; values can stand above or below the molecule they belong to.

B1: PscD (natural protein, UniProt Q8KEP5 1-143, looked up)
chain: MQPQLSRPQTASNQVRKAVSGPWSGNAVHKAEKYFITSAKRDRDGKLQIELVPASGRRKLSPTPEMIRRLIDGEIEIYILTTQPDIAIDMNKEIIDMENRYVIDFDKRGVKWTMREIPVFYHEGKGLCVELHNKIYTLDQFFK
notes: PscD subunit of the reaction center of Chlorobaculum tepidum; also called PscD subunit
B2: Fenna-Matthews-Olson (FMO) complex (natural protein, UniProt Q46393 1-366, looked up)
chain: MALFGSNDVTTAHSDYEIVLEGGSSSWGKVKARAKVNAPPASPLLPADCDVKLNVKPLDPAKGFVRISAVFESIVDSTKNKLTIEADIANETKERRISVGEGMVSVGDFSHTFSFEGSVVNLFYYRSDAVRRNVPNPIYMQGRQFHDILMKVPLDNNDLIDTWEGTVKAIGSTGAFNDWIRDFWFIGPAFTALNEGGQRISRIEVNGLNTESGPKGPVGVSRWRFSHGGSGMVDSISRWAELFPSDKLNRPAQVEAGFRSDSQGIEVKVDGEFPGVSVDAGGGLRRILNHPLIPLVHHGMVGKFNNFNVDAQLKVVLPKGYKIRYAAPQYRSQNLEEYRWSGGAYARWVEHVCKGGVGQFEILYAQ
notes: FMO bacteriochlorophyll a protein of Chlorobaculum tepidum TLS; homotrimer, each monomer with eight BChl a; Two trimers (FMO1, FMO2) of the same protein sit on one reaction center in the RC-FMO2 structure; they are one molecule here; also called FMO trimer; FMO1

Legend:
[1] = target: T1, GsbRC core (PscA dimer) in the RC-FMO2 photosynthetic supercomplex (Chlorobaculum tepidum, UniProt Q8KAY0); experiment: cryo-EM structure, RC-FMO2 […] Å; type: binding
T1 construct: gene CT2020; native complex from membranes of C. tepidum, DDM-solubilized, no tags; homodimeric PscA core with associated subunits; PscE 59 residues modeled; with Photosystem P840 reaction center iron-sulfur protein; Cytochrome c (photosystem P840 reaction center cytochrome c-551); Photosystem P840 reaction center protein PscD; PscE, accessory membrane subunit; Ric1 protein; Bacteriochlorophyll a protein

[2] = target: T2, PscB (Chlorobaculum tepidum, UniProt Q8KAY1); experiment: cryo-EM structure, RC-FMO2 […] Å; type: binding; conditions: FA and FB clusters
T2 construct: native subunit in the RC-FMO2 supercomplex, no tags; loop 17-129 unmodelled; with Photosystem P840 reaction center, large subunit

[3] = target: B2; experiment: cryo-EM structure; single-particle cryo-EM of the native supercomplex extracted with DDM from C. tepidum membranes; RC-FMO2 at 3.08 Å (local 2.92 and 3.06 Å), RC-FMO1 at 3.49 Å; 20 mM Tris-Cl pH 8.0, 200 mM NaCl, 0.17 mM DDM; conditions: both partners purified
[4] = target: the molecule itself; experiment: as above

cryo-EM structure, RC-FMO2 3.08 Å ([1]; three molecules in RC core): four Chl a, three chlorobactenes (F26)
Molecule: CC(C)=CCC/C(C)=C/C=C/C(C)=C/C=C/C(C)=C/C=C/C=C(C)/C=C/C=C(C)/C=C/c1c(C)ccc(C)c1C [F26, chlorobactene]

Molecule: [S]1[Fe]2[S]3[S]4[Fe][S]2[Fe]4[Fe]13 [SF4, iron-sulfur cluster]
cryo-EM structure, RC-FMO2 3.08 Å [2]: Cartoons are the protein residues that interact with the FeS clusters
cryo-EM structure, RC-FMO2 3.08 Å ([1]; FX cluster at PscA dimer): The FeS clusters and P840 dimer that drive the ETC in RC-FMO2 are arranged similarly

Molecule: B1
binding result [3]: binds

Molecule: B2
binding result [4]: binds
